Measurements taken from patent US20100267002A1, “PEPTIDE HAVING LIFE-LENGTHENING EFFECT ON CELLS” (National Institute of Advanced Industrial Science and …, priority 2009, published 2010).

Columns and labels:
[1] = tested on: HepG2 cells; assay: HepG2 cell preservation at 4° C., survival ratio by Cellstain (Calcein-AM/PI) fluorescent double staining; format: cell-based, human; details: for cell survival ratio (fluorescent dye observation): HepG2, 4° C., 48 hours, peptide 10 mg/ml in Euro-Collins solution
Experimental: (§1) Nfe6-, Nfe8-, and Nfe11-based confirmation of cell protecting effects and cell preserving effects was performed with the use of the HepG2 cell line (FIG. 3) derived from the human liver (purchased from Riken Cell Bank). The experiment was carried out using the HepG2 cells that had been cultured for about a week in Dulbecco's Modified Eagle's Medium (DMEM) (Sigma-Aldrich, Japan) (a culture solution) containing 10% bovine serum (FBS, Gibco) and 50 μg/ml penicillin/streptomycin (Invitrogen). FBS was inactivated by heating at 56° C. for 30 minutes and then used. Culture was conducted in a CO2 incubator (SANYO) using a flask in an atmosphere of 5% CO2 at 37° C. The HepG2 cells that had reached subconfluent conditions (i.e., conditions immediately before the container becomes filled with cells) were treated with a trypsin solution (Wako Pure Chemical Industries, Ltd.) to prepare a cell suspension. The cell suspension was sowed on a cell culture microplate, culture was conducted in a CO2 incubator (5% CO2, 37° C.) overnight, and the resultant was then used for the preservation experiment. In all the experiments described below, cells were preserved at 4° C.
The cells that had been subjected to preservation treatment for 48 hours were stained with Cellstain (Cell Double Staining Kit, available from Dojindo Laboratories), and the cells were observed under a fluorescent microscope (Olympus IX70) to evaluate the survival ratio. Cellstain (Cell Double Staining Kit) involves the use of Calcein-AM fluorescent dye, which stains viable cells, in combination with PI (Propidium iodide) fluorescent dye, which stains dead cells. […] Thereafter, the cell culture plate was mounted on a fluorescent microscope, and “viable cells stained yellow green” were observed using a fluorescence cube for GFP (excitation filter: BP460-480; dichroic mirror: DM450; absorption filter: BA460-510). Also, “dead cells stained red” were observed using a fluorescence cube for YFP (excitation filter: BP490-500; dichroic mirror: DM505; absorption filter: BA515-560).

[2] = tested on: HepG2 cells; assay: HepG2 cell preservation at 4° C., survival ratio by amount of LDH released; format: cell-based, human; details: HepG2, 4° C., peptide 10 mg/ml in EC solution, 11 repetitions; for survival ratio based on the assay of the amount of LDH: 24 hours
Experimental: as §1
Further, the cell survival ratio after 24-hour-preservation was estimated using the LDH Cytotoxicity Detection Kit (Takara Bio Inc.). The LDH amount was measured by sowing the cell suspension prepared by the method described in (5) on a 4-well cell culture plate (Nalge Nunc International K.K.) and subjecting the resultants to the preservation experiment at 4° C. for 24 hours and for 48 hours. […] The amount of red formazan generated was evaluated by assaying the absorbance at 490 nm using a microplate reader (Sunrise Remote, Wako Pure Chemical Industries, Ltd.). In this experiment, the LDH amount when the HepG2 cells had been preserved for 24 hours using a cell preservative solution containing 1% Triton X (the A2 solution) was designated as 100% and the percentage of LDH in the experiment was determined based thereon.

[3] = tested on: HepG2 cells; assay: HepG2 cell preservation at 4° C., survival ratio by WST-8 (Cell Counting Kit-8); format: cell-based, human; details: HepG2, 4° C., 48 hours, peptide 10 mg/ml in EC solution, 11 repetitions
Experimental: as §1, with “The cell suspension was sowed on a cell culture microplate, culture was conducted in a CO2 incubator (5% CO2, 37° C.) overnight, and the resultant was then used for the preservation experiment. In all the experiments described below, cells were preserved at 4° C.” left out
[…] The amount of water-soluble formazan in the medium was evaluated by measuring the absorbance at 450 nm using a microplate reader (Sunrise Remote, Wako Pure Chemical Industries, Ltd.), and the percentage of viable cells after the cell preservation experiment was determined using the number of cells determined by adding WST-8 to the HepG2 cells before the preservation experiment as a control (100%).

[4] = tested on: HepG2 cells; assay: HepG2 cell preservation at 4° C., survival ratio by amount of ATP (CellTiter-Glo); format: cell-based, human; details: HepG2, 4° C., 48 hours, peptide 10 mg/ml in EC solution, 11 repetitions
Experimental: Nfe6-, Nfe8-, and Nfe11-based confirmation of cell protecting effects and cell preserving effects was performed with the use of the HepG2 cell line (FIG. 3) derived from the human liver (purchased from Riken Cell Bank). The experiment was carried out using the HepG2 cells that had been cultured for about a week in Dulbecco's Modified Eagle's Medium (DMEM) (Sigma-Aldrich, Japan) (a culture solution) containing 10% bovine serum (FBS, Gibco) and 50 μg/ml penicillin/streptomycin (Invitrogen). FBS was inactivated by heating at 56° C. for 30 minutes and then used. Culture was conducted in a CO2 incubator (SANYO) using a flask in an atmosphere of 5% CO2 at 37° C. […]
Since the metabolism is reduced at low temperatures, substantially no ATP is synthesized in cells. […] The ATP concentration was measured using a 96-well cell culture plate for emission measurement (Nalge Nunc International K.K.) and the HepG2 cells prepared by the method described in (5). […] ATP concentration after preservation was evaluated by adding a luminescent reagent (CellTiter-Glo, Promega) to wells and assaying the luminescent intensity using a microplate reader (Wallac 1420 ARVOsx, PerkinElmer Life Sciences, Japan). […]

[5] = tested on: fertilized eggs of Japanese Black Cattle; assay: preservation of fertilized eggs of Japanese Black Cattle at 4° C., survival by microscopic observation; format: cell-based
Experimental: The fertilized eggs of Japanese Black Cattle were subjected to the preservation experiment at 4° C. for 72 to 96 hours (3 to 4 days) using Nfe11, and the survival ratio of the fertilized eggs after preservation was assayed. At the outset, the follicle-stimulating hormones (FSH) were used to subject superovulated […] cattle to artificial insemination. Seven days thereafter, 3 to 6 fertilized eggs at the initial blastocyst stage were removed from the salpinx of the […] cattle and introduced into a straw having a diameter of 400 micrometers. In this case, Nfe11 powder samples were dissolved in a phosphate buffer (PBS) to a concentration of 5 mg/ml or 10 mg/ml, and the recovered fertilized eggs were soaked in the resulting solutions. Both ends of the straw were sealed, the resultant was allowed to stand in a refrigerator at 4° C., and the preservation experiment was carried out for 72 hours to 96 hours. Survival of the fertilized eggs after the preservation experiment was evaluated using a microscopic observation. As a result, the data as shown below were obtained.

Row | Substance | cell survival ratio (fluorescent dye observation) [1] | survival ratio based on the assay of the amount of LDH [2] | cell protection effects ([1]; HepG2 cell lines, 10 mg/ml in Euro-Collins solution) | survival ratio of HepG2 cells, amount of WST-8 [3] | cell survival ratio, amount of LDH released (100 minus LDH value) ([2]; 48 hours) | cell survival ratio, amount of ATP [4] | survival ratio of cattle fertilized eggs ([5]; 5 mg/ml in PBS, 72 hours) | survival ratio of cattle fertilized eggs ([5]; 5 mg/ml in PBS, 96 hours) | survival ratio of cattle fertilized eggs ([5]; 10 mg/ml in PBS, 96 hours)
1 | Nfe6: recombinant Nfe peptide from Zoarces elongatus Kner, SEQ ID NO: 2, no thermal hysteresis activity [reference compound] | about 40% | ~56% |  |  |  |  |  |  | 
2 | Nfe11: recombinant 66-residue peptide from Zoarces elongatus Kner, amino acid sequence SEQ ID NO: 6, no thermal hysteresis activity | about 75% | ~34% | sufficient cell protection effects | ~48% | ~62% | 60% | 67% | 50% | 50%
